ChEMBL document CHEMBL1201862, “PubChem BioAssay data set” (2004)
Where “and” joins values, the source holds several entries; their conditions need not be identical. Identical values can stand only once.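 Tested at 5 concentrations; 48 h exposure; 96-well plates; endpoints linearly interpolated, else capped at highest concentration. At the GI50, growth is halved.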 Calls of active or inactive are those of the source. Rule as the data show it: active = GI50 up to about 1.1 µM and inactive = higher.

Experiments:
Test in all cases: NCI tumour cell line growth inhibition, 48 h
SF-539 = tested on: SF-539
MCF7 = tested on: MCF7
HCT-15 = tested on: HCT-15
MOLT-4 = tested on: MOLT-4
EKVX = tested on: EKVX
IGROV-1 = tested on: IGROV-1
CAKI-1 = tested on: CAKI-1
MDA-N = tested on: MDA-N
UO-31 = tested on: UO-31
786-0 = tested on: 786-0
NCI-H226 = tested on: NCI-H226
SK-OV-3 = tested on: SK-OV-3
NCI-H460 = tested on: NCI-H460
DU-145 = tested on: DU-145
U-251 = tested on: U-251
SW-620 = tested on: SW-620
T47D = tested on: T47D
LOX IMVI = tested on: LOX IMVI
HOP-92 = tested on: HOP-92
SR = tested on: SR

| SMILES | GI50 (SF-539) | GI50 (MCF7) | GI50 (HCT-15) [µM] | GI50 (MOLT-4) | GI50 (EKVX) | GI50 (IGROV-1) | GI50 (CAKI-1) | GI50 (MDA-N) | GI50 (UO-31) | GI50 (786-0) | GI50 (NCI-H226) | GI50 (SK-OV-3) | GI50 (NCI-H460) | GI50 (DU-145) | GI50 (U-251) | GI50 (SW-620) | GI50 (T47D) | GI50 (LOX IMVI) | GI50 (HOP-92) | GI50 (SR) |
| --- | --- | --- | --- | --- | --- | --- | --- | --- | --- | --- | --- | --- | --- | --- | --- | --- | --- | --- | --- | --- |
| N=c1sc2ccccc2n1CC[S-].c1ccc2c(c1)sc1[n+]2CCS1 | 6.58 µM (inactive) | 12.9 µM (inactive) | 16.7 | 3 µM (inactive) | 22 µM (inactive) | 12.5 µM (inactive) | 16.9 µM (inactive) | 37.1 µM (inactive) | 12.5 µM (inactive) | 16.8 µM (inactive) | 16.7 µM (inactive) | 23.1 µM (inactive) | 14.4 µM (inactive) | 21.2 µM (inactive) | 15.5 µM (inactive) | 17.1 µM (inactive) | 23.6 µM (inactive) | 16.9 µM (inactive) | 17 µM (inactive) |  |
| CCON1CC(C(=O)OC)=C(O)C1=O |  | > 100 µM (inactive) | > 100 | > 100 µM (inactive) | > 100 µM (inactive) | > 100 µM (inactive) | > 100 µM (inactive) | > 100 µM (inactive) | > 100 µM (inactive) | > 100 µM (inactive) |  | > 100 µM (inactive) | > 100 µM (inactive) | > 100 µM (inactive) | > 100 µM (inactive) | > 100 µM (inactive) | > 100 µM (inactive) |  | > 100 µM (inactive) |  |
| CCCCCCC(=O)OC[n+]1cccc(-c2c(COC(=O)NC(C)C)c(COC(=O)NC(C)C)c3n2CCC3)c1 | 32.1 µM (inactive) | 27.6 µM (inactive) | 42.6 | 11.6 µM (inactive) | > 100 µM (inactive) | > 41.8 µM (inactive) | 11 µM (inactive) | > 95.3 µM (inactive) | 26.2 µM (inactive) | 21.6 µM (inactive) | 60.7 µM (inactive) | 40.6 µM (inactive) | 14.5 µM (inactive) | 35.9 µM (inactive) | 29.4 µM (inactive) | 28.4 µM (inactive) | 61.8 µM (inactive) | 22 µM (inactive) | 24.9 µM (inactive) |  |
| CCCC(CCN)(CCN)[N+](=O)[O-] | > 100 µM (inactive) |  | > 100 | > 100 µM (inactive) | > 100 µM (inactive) | > 100 µM (inactive) | > 100 µM (inactive) | > 100 µM (inactive) | > 100 µM (inactive) | > 100 µM (inactive) | > 100 µM (inactive) | > 100 µM (inactive) | > 100 µM (inactive) | > 100 µM (inactive) | > 100 µM (inactive) | > 100 µM (inactive) | > 100 µM (inactive) |  |  | > 100 µM (inactive) |
| O=[N+]([O-])c1ccc2oc(=N/c3ccccc3)/c(=N\c3ccccc3)[nH]c2c1 | 39.7 µM (inactive) |  | > 100 | > 100 µM (inactive) | 70.5 µM (inactive) | 32.1 µM (inactive) | 61.1 µM (inactive) | 54.5 µM (inactive) | 77.1 µM (inactive) | 22.6 µM (inactive) | > 100 µM (inactive) | 55.7 µM (inactive) | 29.6 µM (inactive) | > 100 µM (inactive) | 40.9 µM (inactive) | > 100 µM (inactive) | > 100 µM (inactive) | 88.1 µM (inactive) | 28.2 µM (inactive) | > 100 µM (inactive) |
| Fc1ccc(C(OCCN2CC3CCC(C2)N3CCCc2ccccc2)c2ccc(F)cc2)cc1 | 1.99 µM (inactive) | 3.39 µM (inactive) | 3.42 | 2.79 µM (inactive) | 4.06 µM (inactive) | 8.71 µM (inactive) | 6.22 µM (inactive) | 3.43 µM (inactive) | 7.33 µM (inactive) | 3.62 µM (inactive) | 3.94 µM (inactive) | 10.2 µM (inactive) | 3.01 µM (inactive) | 8.13 µM (inactive) | 4.54 µM (inactive) | 3.54 µM (inactive) | 1.95 µM (inactive) | 3.89 µM (inactive) | 8.05 µM (inactive) |  |
| COc1c(Sc2c(SCSc3cnc4ccccc4c3Sc3cnc4ccccc4c3OC)cnc3ccccc23)cnc2ccccc12 | > 100 µM (inactive) |  | 84.5 | 55.8 µM (inactive) | 35.7 µM (inactive) | 8.13 µM (inactive) | > 100 µM (inactive) | 77.8 µM (inactive) | 24.7 µM (inactive) | > 100 µM (inactive) |  |  | 98.2 µM (inactive) | > 100 µM (inactive) | 30.1 µM (inactive) | 31.6 µM (inactive) | > 100 µM (inactive) | > 100 µM (inactive) | 13.2 µM (inactive) | 21.8 µM (inactive) |
| Cc1nc2ccc(NC3OC(CO)C(O)C(O)C3O)cc2c(=O)n1-c1ccccc1 (stereo not given) |  | > 100 µM (inactive) | > 100 | > 100 µM (inactive) and > 99.3 µM (inactive) | > 100 µM (inactive) | > 100 µM (inactive) | > 100 µM (inactive) | > 100 µM (inactive) | > 100 µM (inactive) | > 100 µM (inactive) | > 100 µM (inactive) |  | > 100 µM (inactive) | > 100 µM (inactive) | > 100 µM (inactive) | > 100 µM (inactive) | > 100 µM (inactive) | > 100 µM (inactive) |  |  |
| COc1ccc(C(=O)/C=C/c2ccc(OCCCCCCCCCCOc3ccc(/C=C/C(=O)c4ccc(OC)cc4)cc3)cc2)cc1 | > 100 µM (inactive) | > 100 µM (inactive) | > 100 | > 100 µM (inactive) | > 100 µM (inactive) | > 100 µM (inactive) | > 100 µM (inactive) | > 100 µM (inactive) | > 100 µM (inactive) | > 100 µM (inactive) | > 100 µM (inactive) | > 100 µM (inactive) | > 100 µM (inactive) | > 100 µM (inactive) | > 100 µM (inactive) | > 100 µM (inactive) | > 100 µM (inactive) |  |  | > 100 µM (inactive) |
| O=C1C(Cl)=C(NCCN2CCOCC2)C(=O)c2ncccc21 | 1.72 µM (inactive) | 1.66 µM (inactive) | 1.91 | 1.51 µM (inactive) | 1.75 µM (inactive) | 1.97 µM (inactive) |  | 0.2 µM (active) | 1.65 µM (inactive) | 1.44 µM (inactive) | 2.1 µM (inactive) | 1.95 µM (inactive) | 1.46 µM (inactive) | 1.66 µM (inactive) | 1.66 µM (inactive) | 1.85 µM (inactive) | 2.45 µM (inactive) | 1.01 µM (active) | 2.25 µM (inactive) |  |
| COc1ccc(-c2oc3c(OC)c(OC)cc(O)c3c(=O)c2OC)cc1 | 28.8 µM (inactive) | > 100 µM (inactive) | > 100 | > 100 µM (inactive) | > 100 µM (inactive) | > 100 µM (inactive) | > 100 µM (inactive) | > 100 µM (inactive) | > 100 µM (inactive) | > 100 µM (inactive) | > 100 µM (inactive) | 36.5 µM (inactive) | > 100 µM (inactive) | > 100 µM (inactive) | 70.8 µM (inactive) | > 100 µM (inactive) | > 100 µM (inactive) | 65 µM (inactive) | 42.8 µM (inactive) |  |
| Cc1ccc(S(=O)(=O)NC(CCC(=O)NNc2ccccc2)C(=O)NNc2ccccc2)cc1 (stereo not given) | 17.5 µM (inactive) | 23.1 µM (inactive) | 15.4 | 3.85 µM (inactive) | > 100 µM (inactive) | 91 µM (inactive) | > 100 µM (inactive) | 17.2 µM (inactive) | 6.1 µM (inactive) | > 100 µM (inactive) | > 100 µM (inactive) | > 100 µM (inactive) | 16.8 µM (inactive) |  | 3.08 µM (inactive) | 6.65 µM (inactive) | 5.47 µM (inactive) | > 100 µM (inactive) | > 100 µM (inactive) | 18.9 µM (inactive) |
| Cc1ncc([N+](=O)[O-])n1CCNC(=O)CCCCCn1ccnc1[N+](=O)[O-] | > 100 µM (inactive) | > 100 µM (inactive) | > 100 | > 100 µM (inactive) |  | > 100 µM (inactive) | > 100 µM (inactive) | > 100 µM (inactive) | > 100 µM (inactive) | > 100 µM (inactive) | > 100 µM (inactive) | > 100 µM (inactive) | > 100 µM (inactive) | > 100 µM (inactive) | > 100 µM (inactive) | > 100 µM (inactive) | > 100 µM (inactive) |  |  | > 100 µM (inactive) |
| CNC(=O)C1(C#N)C(c2ccccc2)C(C#N)(C(=O)NC)C1c1ccccc1 (stereo not given) | > 100 µM (inactive) | > 100 µM (inactive) | > 100 | > 100 µM (inactive) | > 100 µM (inactive) | > 100 µM (inactive) | > 100 µM (inactive) | > 100 µM (inactive) | > 100 µM (inactive) | > 100 µM (inactive) | 98.9 µM (inactive) | > 100 µM (inactive) | > 100 µM (inactive) |  | > 100 µM (inactive) | > 100 µM (inactive) | > 100 µM (inactive) | > 100 µM (inactive) | > 100 µM (inactive) | > 100 µM (inactive) |
| O=C(O)Cc1ccc([N+](=O)[O-])cc1[N+](=O)[O-] | > 100 µM (inactive) | > 100 µM (inactive) | > 100 | > 100 µM (inactive) | > 100 µM (inactive) | > 100 µM (inactive) | > 100 µM (inactive) | > 100 µM (inactive) | > 100 µM (inactive) | > 100 µM (inactive) | > 100 µM (inactive) | > 100 µM (inactive) | > 100 µM (inactive) | > 100 µM (inactive) | > 100 µM (inactive) | > 100 µM (inactive) | > 100 µM (inactive) | > 100 µM (inactive) |  |  |
